Key:
[1] = species: Rattus norvegicus; assay: Intrinsic activity determined in rat aorta; format: functional
[2] = species: Rattus norvegicus; assay: Negative logarithm of the molar concentration required to relax rat aorta precontracted with 30 mM KCL by 50% of intrinsic activity; format: functional

EC50 [2]	SMILES	IA [1]
2.75 nM	O=C1CCCCN1[C@@H]1c2cc([N+](=O)[O-])ccc2OC(CF)(CF)[C@H]1O	63.3%
5.62 nM	O=C1CCCCN1C1=CC(CF)(CF)Oc2ccc(C(F)(F)C(F)(F)F)cc21	72%
8.91 nM	N#Cc1ccc2c(c1)[C@@H](N1CCCCC1=O)[C@H](O)C(CF)(CF)O2	74.9%
2.45 nM	O=c1ccccn1C1=CC(CF)(CF)Oc2ccc([N+](=O)[O-])cc21	64.9%
6.31 nM	O=C1CCCN1[C@@H]1c2cc(C(F)(F)C(F)(F)F)ccc2OC(CF)(CF)[C@H]1O	77.6%
	CC(N/C(=N\C#N)Nc1ccncc1)C(C)(C)C (configuration not stated) [PINACIDIL ANHYDROUS]	91.9%
	CC1(C)Oc2ccc(C#N)cc2[C@@H](N2CCCC2=O)[C@@H]1O [CROMAKALIM]	74.7%
1.7 nM	[O-][n+]1ccccc1C1=CC(CF)(CF)Oc2ccc(C(F)(F)C(F)(F)F)cc21	68.2%
1.51 nM	O=C1CCCN1C1=CC(CF)(CF)Oc2ccc(C(F)(F)C(F)(F)F)cc21	68.6%
2.95 nM	O=c1ccccn1C1=CC(CF)(CF)Oc2ccc(C(F)(F)C(F)(F)F)cc21	69.2%
24.5 nM	N#Cc1ccc2c(c1)C(n1ccccc1=O)=CC(CF)(CF)O2	75.7%
17.4 nM	O=C1CCCCN1C1=CC(CF)(CF)Oc2ccc([N+](=O)[O-])cc21	69.7%
148 nM	N#Cc1ccc2c(c1)[C@@H](n1ccccc1=O)[C@H](O)C(CF)(CF)O2	78.7%
30.2 nM	CC1(C)C=C(n2ccccc2=O)c2cc(C#N)ccc2O1 [BIMAKALIM]	70.2%
162 nM	N#Cc1ccc2c(c1)C(N1CCCCC1=O)=CC(CF)(CF)O2	68.7%
7.76 nM	O=C1CCCN1C1=CC(CF)(CF)Oc2ccc([N+](=O)[O-])cc21	74.3%
28.8 nM	O=c1ccccn1[C@@H]1c2cc([N+](=O)[O-])ccc2OC(CF)(CF)[C@H]1O	74.5%
12 nM	O=c1ccccn1[C@@H]1c2cc(C(F)(F)C(F)(F)F)ccc2OC(CF)(CF)[C@H]1O	82.8%
85.1 nM	N#Cc1ccc2c(c1)[C@@H](N1CCCC1=O)[C@H](O)C(CF)(CF)O2	78%
24 nM	O=C1CCCN1[C@@H]1c2cc([N+](=O)[O-])ccc2OC(CF)(CF)[C@H]1O	72.7%
102 nM	N#Cc1ccc2c(c1)C(N1CCCC1=O)=CC(CF)(CF)O2	74.4%
3.89 nM	O=C1CCCCN1[C@@H]1c2cc(C(F)(F)C(F)(F)F)ccc2OC(CF)(CF)[C@H]1O	65.6%
